Reference: patent publication US20240254119A1 (THIRD HARMONIC BIO, INC., priority 2022, published 2024)

What follows are compounds tested against T1, wtKIT (Homo sapiens, UniProt P10721) (assay: HTRF biochemical assay, wtKIT (phosphorylation of a peptide substrate)). Details: Table 4.
T1 construct: 1888289AM in the reaction mixtures
T1 sequence (P10721 26-976): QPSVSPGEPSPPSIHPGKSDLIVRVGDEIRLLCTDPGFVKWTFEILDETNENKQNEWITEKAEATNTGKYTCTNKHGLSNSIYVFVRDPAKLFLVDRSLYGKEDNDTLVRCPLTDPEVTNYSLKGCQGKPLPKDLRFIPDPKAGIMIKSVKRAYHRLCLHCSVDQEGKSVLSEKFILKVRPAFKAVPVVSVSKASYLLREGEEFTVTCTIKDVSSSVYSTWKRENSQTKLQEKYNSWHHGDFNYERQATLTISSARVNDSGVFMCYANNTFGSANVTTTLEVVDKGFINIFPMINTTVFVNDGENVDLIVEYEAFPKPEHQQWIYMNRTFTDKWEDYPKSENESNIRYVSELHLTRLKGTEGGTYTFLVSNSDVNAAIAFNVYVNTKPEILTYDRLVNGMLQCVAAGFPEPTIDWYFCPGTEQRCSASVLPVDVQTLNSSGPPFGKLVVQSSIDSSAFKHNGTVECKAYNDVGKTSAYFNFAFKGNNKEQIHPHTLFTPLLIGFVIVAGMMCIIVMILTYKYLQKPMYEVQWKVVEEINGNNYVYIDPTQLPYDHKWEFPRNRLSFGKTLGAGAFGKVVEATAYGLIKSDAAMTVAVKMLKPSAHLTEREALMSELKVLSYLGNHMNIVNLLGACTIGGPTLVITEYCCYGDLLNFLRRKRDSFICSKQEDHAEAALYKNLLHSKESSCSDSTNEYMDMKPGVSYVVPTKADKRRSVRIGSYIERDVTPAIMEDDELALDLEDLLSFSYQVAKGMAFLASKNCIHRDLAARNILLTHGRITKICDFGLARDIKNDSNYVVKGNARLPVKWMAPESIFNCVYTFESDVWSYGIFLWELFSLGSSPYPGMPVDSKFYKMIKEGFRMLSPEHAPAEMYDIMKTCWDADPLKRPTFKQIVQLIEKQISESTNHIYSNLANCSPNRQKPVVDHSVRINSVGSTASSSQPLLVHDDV
Experimental: Exemplary compounds were tested for ability to inhibit the phosphorylation of a peptide substrate by the tyrosine kinase wt KIT, PDGFRα, or CSF-1R. Assay procedures and results are described below.
Enzyme, substrate, and cofactors (ATP and Mn^2+) are combined in a well of a microtiter plate and incubated for 3 hours at 25° C. At the end of the incubation, the reaction is quenched by the addition of an EDTA-containing buffer.
The substrate used in the CSF-1R and PDGFRα assay is FAM-[…]-CONH2 (FAM is carboxyfluorescein). Peptide should be >95% purity. The substrate for the KIT assay is FAM-[…]-NH2.
• 1. To a well of a 384-wellplate add 5 μL of 2× enzyme buffer (or control). • 2. Add 100 nL of 100× compound. Enzyme and compound may be pre-incubated at this time if desired. • 3. Add 5 μL of 2× substrate buffer. • 4. Incubate plate at 25° C. for 3 hours. • 5. Add 10 uL of anti-phosphotyrosine antibody buffer. • 6. Read plate in BioTek Synergy Reader. Reaction Conditions for wtKIT Assay
• 100 mM HEPES, pH 7.5 0.1% BSA • 0.01% Triton x-100 • 1 mM DTT • 10 mM MnCl2 • 10 μM Sodium Orthovanadate • 10 μM Beta-Glycerophosphate • 400 μM ATP • 1% DMSO (from compound) • 1 μM FAM-[…]-CONH2, 5.0 nM wtKIT Enzyme (1888289AM)* • *Specific activity may vary from lot to lot. Enzyme concentration may need to be adjusted to yield 10-20% conversion of substrate to product.
`Cc1nc(-c2ccc(C)c(NC(=O)c3cnc4cc(OC5CCOC5)ccn34)c2)no1` (single isomer, unassigned) [Compound I-748] showed an IC50 of 50 to 500 nM.
Compound `COC(C)(C)COCc1ccn2c(C(=O)Nc3cc(-c4noc([C@H]5C[C@@H]5F)n4)ccc3C)cnc2c1` [Compound I-465] has an IC50 of 50 to 500 nM.
`Cc1ccc(-c2noc([C@@H]3CC4(CC4)CN3)n2)cc1NC(=O)c1cnc2cc(Cl)ccn12` [Compound I-627, (S)—N-(5-(5-(5-azaspiro[2.4]heptan-6-yl)-1,2,4-oxadiazol-3-yl)-2-methylphenyl)-7-chloroimidazo[1,2-a]pyridine-3-carboxamide] was tested, and the IC50 was ≤ 50 nM.
In the case of `Cc1ccc(-c2noc(CC(O)c3ccccc3)n2)cc1NC(=O)c1cnc2ccccn12` (centres unmarked) [Compound I-517, N-(5-(5-(2-hydroxy-2-phenylethyl)-1,2,4-oxadiazol-3-yl)-2-methylphenyl)imidazo[1,2-a]pyridine-3-carboxamide], the IC50 is reported as ≤ 50 nM.
Compound `Cc1ccc(-c2noc(CC(O)C3COC3)n2)cc1NC(=O)c1cnc2ccccn12` (centres unmarked) [Compound I-591] has an IC50 of 50 to 500 nM.
For `CNCC(O)Cc1nc(-c2ccc(C)c(NC(=O)c3cnc4ccccn34)c2)no1` (centres unmarked) [Compound I-557], the IC50 was 5000 to 30000 nM.
For `Cc1ccc(-c2ncon2)cc1NC(=O)c1cnc2cc(N3CCOCC3)ccn12` [Compound I-717], the IC50 was ≤ 50 nM.
`COc1ccn2c(C(=O)Nc3cc(-c4noc(Cc5ccc(C)cc5)n4)ccc3C)cnc2c1` [Compound I-537, 7-methoxy-N-(2-methyl-5-(5-(4-methylbenzyl)-1,2,4-oxadiazol-3-yl)phenyl)imidazo[1,2-a]pyridine-3-carboxamide] was tested, and the IC50 was ≤ 50 nM.
`Cc1ccc(-c2noc([C@H]3C[C@@H]3F)n2)cc1NC(=O)c1cnc2ccc(COCCO)cn12` [Compound I-453, N-[5-[5-[(1R,2S)-2-fluorocyclopropyl]-1,2,4-oxadiazol-3-yl]-2-methyl-phenyl]-6-(2-hydroxyethoxymethyl)imidazo[1,2-a]pyridine-3-carboxamide] was tested, and the IC50 was ≤ 50 nM.
With `Cc1ccc(-c2noc([C@H]3C[C@@H]3F)n2)cc1NC(=O)c1cnc2cc(C3CC(O)C3)ccn12` (stereo partly drawn) [Compound I-478, N-[5-[5-[(1R,2S)-2-fluorocyclopropyl]-1,2,4-oxadiazol-3-yl]-2-methyl-phenyl]-7-(3-hydroxycyclobutyl)imidazo[1,2-a]pyridine-3-carboxamide] the IC50 was ≤ 50 nM.
`Cc1ccc(-c2noc(CC3CCCO3)n2)cc1NC(=O)c1cnc2cc(Cl)ccn12` (centres unmarked) [Compound I-615, 7-Chloro-N-[2-methyl-5-[5-(tetrahydrofuran-2-ylmethyl)-1,2,4-oxadiazol-3-yl]phenyl]imidazo[1,2-a]pyridine-3-carboxamide] was tested, and the IC50 was ≤ 50 nM.
With `Cc1ccc(-c2noc([C@H]3C[C@@H]3F)n2)cc1NC(=O)c1cnc2cc(COCC(=O)O)ccn12` [Compound I-477, 2-((3-((5-(5-((1R,2S)-2-fluorocyclopropyl)-1,2,4-oxadiazol-3-yl)-2-methylphenyl)carbamoyl)imidazo[1,2-a]pyridin-7-yl)methoxy)acetic acid] the IC50 was ≤ 50 nM.
In the case of `Cc1ccc(-c2noc(C[C@H](O)C(F)F)n2)cc1NC(=O)c1cnc2cc(COCc3nc[nH]n3)ccn12` [Compound I-587, N-[5-[5-[(2S)-3,3-difluoro-2-hydroxy-propyl]-1,2,4-oxadiazol-3-yl]-2-methyl-phenyl]-7-(1H-1,2,4-triazol-3-ylmethoxymethyl)imidazo[1,2-a]pyridine-3-carboxamide], the IC50 is reported as ≤ 50 nM.
`Cc1ccc(-c2noc(C[C@H](O)C(F)F)n2)cc1NC(=O)c1cnc2cc(OCC(C)O)ccn12` (stereo partly drawn) [Compound I-571, N-(5-(5-((S)-3,3-difluoro-2-hydroxypropyl)-1,2,4-oxadiazol-3-yl)-2-methylphenyl)-7-(2-hydroxypropoxy)imidazo[1,2-a]pyridine-3-carboxamide] was tested, and the IC50 was ≤ 50 nM.
With `Cc1ccc(-c2noc([C@@H]3CC4(CC4)CN3)n2)cc1NC(=O)c1cnc2cc(-c3cscn3)ccn12` [Compound I-635, N-[5-[5-[(6S)-5-azaspiro[2.4]heptan-6-yl]-1,2,4-oxadiazol-3-yl]-2-methyl-phenyl]-7-thiazol-4-yl-imidazo[1,2-a]pyridine-3-carboxamide] the IC50 was ≤ 50 nM.
Compound `COCc1ccn2c(C(=O)Nc3cc(-c4noc(CCN5CCCCC5)n4)ccc3C)cnc2c1` [Compound I-666] has an IC50 of 50 to 500 nM.
In the case of `Cc1ccn2c(C(=O)Nc3cc(-c4noc(C5CCCCC5)n4)ccc3C)cnc2c1` [Compound I-539], the IC50 is reported as ≤ 50 nM.
With `Cc1ccc(-c2noc([C@H]3C[C@@H]3F)n2)cc1NC(=O)c1cnc2cc(COCC(C)(C)O)c(F)cn12` [Compound I-498, 6-fluoro-N-[5-[5-[(1R,2S)-2-fluorocyclopropyl]-1,2,4-oxadiazol-3-yl]-2-methyl-phenyl]-7-[(2-hydroxy-2-methyl-propoxy)methyl]imidazo[1,2-a]pyridine-3-carboxamide] the IC50 was ≤ 50 nM.
`Cc1ccc(-c2noc([C@H]3C[C@@H]3F)n2)cc1NC(=O)c1cnc2ccc(-c3cscn3)cn12` [Compound I-541, N-(5-(5-((1R,2S)-2-fluorocyclopropyl)-1,2,4-oxadiazol-3-yl)-2-methylphenyl)-6-(thiazol-4-yl)imidazo[1,2-a]pyridine-3-carboxamide] was tested, and the IC50 was ≤ 50 nM.
With `Cc1ccnc(-c2nc(-c3ccc(C)c(NC(=O)c4cnc5cc(C)ccn45)c3)no2)c1` [Compound I-549, 7-methyl-N-(2-methyl-5-(5-(4-methylpyridin-2-yl)-1,2,4-oxadiazol-3-yl)phenyl)imidazo[1,2-a]pyridine-3-carboxamide] the IC50 was ≤ 50 nM.
With `Cc1ccc(-c2noc([C@H]3C[C@@H]3F)n2)cc1NC(=O)c1cnc2cc([C@@H]3C[C@H]3CO)ccn12` [Compound I-481, N-[5-[5-[(1R,2S)-2-fluorocyclopropyl]-1,2,4-oxadiazol-3-yl]-2-methyl-phenyl]-7-[(1R,2R)-2 (hydroxymethyl)cyclopropyl]imidazo[1,2-a]pyridine-3-carboxamide] the IC50 was ≤ 50 nM.
With `Cc1ccc(-c2noc([C@H]3C[C@@H]3F)n2)cc1NC(=O)c1cnc2cc(Cl)c(F)cn12` [Compound I-613, 7-Chloro-6-fluoro-N-(5-(5-((1R,2S)-2-fluorocyclopropyl)-1,2,4-oxadiazol-3-yl)-2-methylphenyl)imidazo[1,2-a]pyridine-3-carboxamide] the IC50 was ≤ 50 nM.
For `Cc1ccc(-c2noc(N3CC(F)(F)C3)n2)cc1NC(=O)c1cnn2cc(Cl)ccc12` [Compound I-625], the IC50 was ≤ 50 nM.
With `Cc1nc(-c2ccc(C)c(NC(=O)c3cnc4ccc(-c5cscn5)cn34)c2)no1` [Compound I-542, N-(2-methyl-5-(5-methyl-1,2,4-oxadiazol-3-yl)phenyl)-6-(thiazol-4-yl)imidazo[1,2-a]pyridine-3-carboxamide] the IC50 was ≤ 50 nM.
`Cc1ccc(-c2noc([C@H]3C[C@@H]3F)n2)cc1NC(=O)c1cnc2ccc(C(C)(C)O)cn12` [Compound I-457, N-(5-(5-((1R,2S)-2-fluorocyclopropyl)-1,2,4-oxadiazol-3-yl)-2-methylphenyl)-6-(2-hydroxypropan-2-yl)imidazo[1,2-a]pyridine-3-carboxamide] was tested, and the IC50 was ≤ 50 nM.
For `CCC(O)Cc1nc(-c2ccc(C)c(NC(=O)c3cnc4ccccn34)c2)no1` (centres unmarked) [Compound I-526], the IC50 was ≤ 50 nM.
`Cc1ccc(-c2noc([C@H]3C[C@@H]3F)n2)cc1NC(=O)c1cnn2cc(F)ccc12` [Compound I-486, 6-fluoro-N-(5-(5-((1R,2S)-2-fluorocyclopropyl)-1,2,4-oxadiazol-3-yl)-2-methylphenyl)pyrazolo[1,5-a]pyridine-3-carboxamide] was tested, and the IC50 was ≤ 50 nM.
Work on `Cc1nc(-c2ccc(C)c(NC(=O)c3cnc4ccccn34)c2)no1` [Compound I-564] yielded an IC50 of 50 to 500 nM.
With `Cc1ccc(-c2noc([C@H]3C[C@@H]3F)n2)cc1NC(=O)c1cnc2cc(COCC3(O)CC3)ccn12` [Compound I-622, N-(5-(5-((1R,2S)-2-fluorocyclopropyl)-1,2,4-oxadiazol-3-yl)-2-methylphenyl)-7-(((1-hydroxycyclopropyl)methoxy)methyl)imidazo[1,2-a]pyridine-3-carboxamide] the IC50 was ≤ 50 nM.
`Cc1ccc(-c2noc(N3CC(F)(F)C3)n2)nc1NC(=O)c1cnc2ccccn12` [Compound I-711] was tested, and the IC50 was 50 to 500 nM.
`Cc1ccc(-c2noc([C@H]3CCN3)n2)cc1NC(=O)c1cnc2cc(-c3ccn(C)n3)ccn12` [Compound I-624, N-[5-[5-[(2R)-azetidin-2-yl]-1,2,4-oxadiazol-3-yl]-2-methyl-phenyl]-7-(1-methylpyrazol-3-yl)imidazo[1,2-a]pyridine-3-carboxamide] was tested, and the IC50 was ≤ 50 nM.
With `Cc1ccc(-c2ncon2)cc1NC(=O)c1cnn2cc(-c3ccn(C)n3)ccc12` [Compound I-729] the IC50 was ≤ 50 nM.
With `Cc1ccc(-c2noc(C(C)O)n2)cc1NC(=O)c1cnn2cc(-c3ccn(C)n3)ccc12` (centres unmarked) [Compound I-730] the IC50 was ≤ 50 nM.
`Cc1ccc(-c2noc([C@H]3C[C@@H]3F)n2)cc1NC(=O)c1cnc2cc(COCC(C)O)ccn12` (single isomer, unassigned) [Compound I-469, N-[5-[5-[(1R,2S)-2-fluorocyclopropyl]-1,2,4-oxadiazol-3-yl]-2-methyl-phenyl]-7-[[(2S*)-2-hydroxypropoxy]methyl]imidazo[1,2-a]pyridine-3-carboxamide] was tested, and the IC50 was ≤ 50 nM.
With `Cc1ccn2c(C(=O)Nc3cc(-c4noc(-c5cccnc5)n4)ccc3C)cnc2c1` [Compound I-726] the IC50 was 50 to 500 nM.
